Experimental data: BindingDB's records for PubMed 10411588 (The University of Calgary, 1999)
Where a SMILES comes first, the peptide text is derived from it.

Biological target: T1, Proteinase-activated receptor 2 (Rattus norvegicus, UniProt Q63645)
T1 sequence (Q63645 whole entry): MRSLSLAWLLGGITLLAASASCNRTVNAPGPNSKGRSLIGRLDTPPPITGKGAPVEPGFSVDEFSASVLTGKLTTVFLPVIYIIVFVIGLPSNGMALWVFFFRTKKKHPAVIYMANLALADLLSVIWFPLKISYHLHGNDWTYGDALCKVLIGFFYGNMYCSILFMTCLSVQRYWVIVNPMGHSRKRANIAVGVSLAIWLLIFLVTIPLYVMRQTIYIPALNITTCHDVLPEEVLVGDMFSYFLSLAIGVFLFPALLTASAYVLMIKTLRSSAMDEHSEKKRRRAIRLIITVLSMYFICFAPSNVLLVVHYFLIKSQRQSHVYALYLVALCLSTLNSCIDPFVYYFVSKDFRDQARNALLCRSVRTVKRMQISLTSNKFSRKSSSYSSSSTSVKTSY

Ki | Compound
2300 nM | CC(C)C[C@H](NC(=O)[C@H](CC(C)C)NC(=O)[C@H](Cc1ccccc1)NC(=O)[C@@H](N)CO)C(=O)N[C@@H](CCCN=C(N)N)C(N)=O [SFLLR-NH2]
> 10000 nM | CC(C)C[C@H](NC(=O)[C@H](CC(C)C)NC(=O)[C@H](Cc1ccccc1)NC(=O)[C@@H](N)CO)C(=O)N[C@@H](CCCN=C(N)N)C(=O)O [SFLLR-OH]
260 nM | CC[C@H](C)[C@H](NC(=O)[C@H](CC(C)C)NC(=O)C=Cc1ccccc1)C(=O)NCC(=O)N[C@@H](CCCNC(=N)N)C(=O)N[C@@H](CC(C)C)C(=O)N[C@@H](CCCN)C(N)=O [trans-cinnamoyl-LIGRLO-NH2] (HELM PEPTIDE1{[O=C(C=Cc1ccccc1)[*:2]].L.I.G.R.L.[Orn].[am]}$$$$V2.0)

Compound | Ki
CC[C@H](C)[C@H](NC(=O)[C@H](CC(C)C)NC(=O)[C@@H](N)CO)C(=O)NCC(=O)N[C@@H](CCCNC(=N)N)C(=O)N[C@@H](CC(C)C)C(N)=O [CAS_171436-38-7] (H-SLIGRL-NH2) | 260 nM
